As usually defined, the viability is a read-out of living cells in per cent, often relative to untreated cells.

Several values for one entry are separate records, joined by “and”; a condition that tells them apart may be missing. Equal values may be shown once.

Drawing on PMC12040169 (PLOS Biology, 2025), this text covers % viability, activity and viability for eleven compounds.

One data set deals with HeLa. Particulars: bulk resorufin, single well, 28.5 h, 10 µM, Bulk resorufin fluorescence.
Data set [1] deals with T1, C. trachomatis L2/434/Bu expressing GFP (CTL2-GFP).
T1 construct: L2/434/Bu GFP intracellular growth in HeLa cells
Nature of the data set: microbe, parasite or virus in culture. Also on record: C. trachomatis total inclusion area by high-content imaging, normalised to DMSO. Particulars: Chlamydia trachomatis, HeLa, 28.5 h; total inclusion area; read-out: % of control remaining. Summed up:
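Screening measures GFP fluorescence from the reporter strain and resorufin fluorescence for host viability, with Hoechst-based imaging of fixed cells adding inclusion area, inclusion number and nuclei count per well.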

For data set [2], the system named is T2, CTL2-GFP (C. trachomatis L2/434/Bu, GFP-expressing).
T2 construct: L2/434/Bu, GFP-expressing
Nature of the data set: microbe, parasite or virus in culture. The arrangement: Intracellular C. trachomatis growth in HeLa cells, bulk GFP fluorescence relative to DMSO. Particulars: Chlamydia trachomatis, HeLa, 28.5 h; bulk GFP, mean of 2; read-out: % of control remaining. The protocol: MICs were calculated as described above.

The nature of data set [3]: in vitro. The arrangement: Viability of infected HeLa host cells, resazurin conversion, bulk resorufin fluorescence relative to DMSO. To be noted: human, hela cells; bulk resorufin, mean of 2.
A short description of data set [4]: in vitro. To be noted: human, hela cells, % viability.

With `O=C(Nc1nc[nH]n1)NC1CCCCC1` [CBK017342], the % viability in the data set on HeLa is 119% and 94.5%.

As to `O=c1[nH]nc(COc2ccc(Br)cc2)o1` [CBK288526], the % viability in the data set on HeLa was 110% and 86.7%.

Take `Cc1cc(CC(=O)N2CCCC3(CCN(C(=O)c4ccoc4)C3)C2)on1` (centres unmarked) [CBK131628]: the % viability with HeLa is 106% and 82.1%.

Regarding `Brc1ccc(CSc2nc[nH]n2)cc1` [CBK027819], the % viability with HeLa worked out at 98.5%.

Turning to `NC(=O)c1[nH]nc(C2OC(CO)C(O)C2O)c1O` (centres unmarked) [CBK201236], in data set [1], the activity at 1 µM was found to be 23.4%, the activity at 5 µM came out at 16% and the activity at 10 µM was determined as 13.6%. Besides, in data set [2], the activity at 1 µM was 15.5%, the activity at 5 µM came to 10.1% and the activity at 10 µM is 9.69%. Further, in “in vitro [3]”, the viability at 28.5 h, 1 µM came out at 92.8%; the viability at 28.5 h, 5 µM was 92.1%; the viability at 28.5 h, 10 µM is 93.8%. Further, the viability at 28.5 h, 10 µM in the data set “in vitro [4]” was found to be 95.1%.

With `CC(=O)NC[C@H]1CN(c2ccc3c(c2)CCSC3)C(=O)O1` [CBK018505], in data set [1], the activity at 1 µM was found to be 129%, the activity at 5 µM came out at 28.5% and the activity at 10 µM stood at 9.34%. Moreover, in data set [2], the activity at 1 µM amounted to 142%, the activity at 5 µM was 29.2% and the activity at 10 µM is 12.6%. In the data set “in vitro [3]”, the viability at 28.5 h, 1 µM amounted to 95.5%; the viability at 28.5 h, 5 µM was determined as 101%; the viability at 28.5 h, 10 µM was found to be 101%. The viability at 28.5 h, 10 µM in “in vitro [4]” turned out to be 99%.

Consider `CCCc1cc(C(=O)N2CCN(c3nccc(OC)n3)CC2)[nH]n1` [CBK304898], for which, in data set [1], the activity at 1 µM amounted to 127%, the activity at 5 µM was determined as 120% and the activity at 10 µM amounted to 43.6%. Further, in data set [2], the activity at 1 µM was 148%, the activity at 5 µM stood at 151% and the activity at 10 µM was determined as 156%. In “in vitro [3]”, the viability at 28.5 h, 1 µM was 89.4%; the viability at 28.5 h, 5 µM worked out at 93.7%; the viability at 28.5 h, 10 µM is 89.2%. In addition, in the data set “in vitro [4]”, the viability at 28.5 h, 10 µM came out at 87%.

With `OC(COc1ccc(Br)cc1)CN1CCCN(c2nc3ccc(Cl)cc3s2)CC1` (centres unmarked) [CBK074643], in data set [1], the activity at 1 µM was 121%, the activity at 5 µM was 82.4% and the activity at 10 µM was 11.3%. Besides, in data set [2], the activity at 1 µM came out at 137%, the activity at 5 µM turned out to be 114% and the activity at 10 µM stood at 43.8%. In the data set “in vitro [3]”, the viability at 28.5 h, 1 µM is 86.1%; the viability at 28.5 h, 5 µM was found to be 88.1%; the viability at 28.5 h, 10 µM turned out to be 88%. For the same compound, in the data set “in vitro [4]”, the viability at 28.5 h, 10 µM amounted to 93.5%.

For `Cc1cc(NS(=O)(=O)c2ccc(NC(=S)NC(=O)C(C)(C)C)cc2)no1` [CBK268877], in data set [1], the activity at 1 µM was 74.7%, the activity at 5 µM was found to be 64% and the activity at 10 µM turned out to be 35.4%. In data set [2], the activity at 1 µM turned out to be 123%, the activity at 5 µM was determined as 78.8% and the activity at 10 µM was 33.7%. In addition, in “in vitro [3]”, the viability at 28.5 h, 1 µM was determined as 93.4%; the viability at 28.5 h, 5 µM amounted to 96.5%; the viability at 28.5 h, 10 µM was 99.1%. The viability at 28.5 h, 10 µM in “in vitro [4]” turned out to be 95.7%.

In the case of `Nc1nc(F)nc2c1ncn2[C@H]1C[C@@H](O)[C@@H](CO)O1` [CBK201337], in data set [1], the activity at 1 µM was 50.4%, the activity at 5 µM was found to be 4.65% and the activity at 10 µM worked out at 1.29%. In addition, in data set [2], the activity at 1 µM came to 52.9%, the activity at 5 µM stood at 11.5% and the activity at 10 µM came to 14.4%. Besides, in the data set “in vitro [3]”, the viability at 28.5 h, 1 µM was 93.5%; the viability at 28.5 h, 5 µM came out at 79.2%; the viability at 28.5 h, 10 µM was found to be 72.6%. Further, the viability at 28.5 h, 10 µM in “in vitro [4]” stood at 77.6%.

With `CC1CC(C)CN(Cc2csc(NC(=O)Cc3ccc(Cl)cc3)n2)C1` (centres unmarked) [CBK306142], in data set [1], the activity at 1 µM was 140%, the activity at 5 µM was 48.4% and the activity at 10 µM was determined as 46.1%. Also, in data set [2], the activity at 1 µM was found to be 150%, the activity at 5 µM is 112% and the activity at 10 µM came to 75.2%. Also, in “in vitro [3]”, the viability at 28.5 h, 1 µM amounted to 87.7%; the viability at 28.5 h, 5 µM was 91.3%; the viability at 28.5 h, 10 µM was determined as 86%. Further, the viability at 28.5 h, 10 µM in “in vitro [4]” stood at 81.1%.
